Source: ChEMBL document CHEMBL1126101, “Synthesis and structure-activity relationships of acetylcholinesterase inhibitors: 1-benzyl-4-(2-phthalimidoethyl)piperidine and related derivatives” (J Med Chem, 1992)

Molecular target: T1, Acetylcholinesterase (Mus musculus, UniProt P21836)
T1 sequence (P21836 whole entry): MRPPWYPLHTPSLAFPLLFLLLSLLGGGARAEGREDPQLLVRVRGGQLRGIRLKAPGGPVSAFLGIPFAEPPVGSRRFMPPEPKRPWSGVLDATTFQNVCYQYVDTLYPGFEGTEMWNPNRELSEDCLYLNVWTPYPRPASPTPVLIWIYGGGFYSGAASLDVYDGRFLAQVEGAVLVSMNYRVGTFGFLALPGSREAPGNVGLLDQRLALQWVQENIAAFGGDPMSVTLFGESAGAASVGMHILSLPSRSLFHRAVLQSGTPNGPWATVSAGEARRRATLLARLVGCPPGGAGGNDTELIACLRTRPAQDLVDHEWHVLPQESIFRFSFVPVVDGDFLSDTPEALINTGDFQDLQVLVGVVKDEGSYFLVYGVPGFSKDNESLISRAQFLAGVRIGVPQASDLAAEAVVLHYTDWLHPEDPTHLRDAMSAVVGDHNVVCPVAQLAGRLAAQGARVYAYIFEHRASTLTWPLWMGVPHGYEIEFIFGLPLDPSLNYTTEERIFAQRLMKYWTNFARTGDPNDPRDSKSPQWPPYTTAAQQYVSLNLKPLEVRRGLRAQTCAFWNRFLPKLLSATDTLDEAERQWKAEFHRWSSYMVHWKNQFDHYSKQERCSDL
Test: biochemical
Description: In vitro inhibitory concentration against acetylcholinesterase (AChE) obtained from mouse brain homogenate.

Row | Structure (SMILES) | IC50
1 | O=C1c2ccc([N+](=O)[O-])cc2C(=O)N1CCC1CCN(Cc2ccccc2)CC1 | 12.5 nM
2 | O=C1c2ccccc2C(=O)N1CCC1CCN(Cc2ccccc2)CC1 | 30 nM
3 | O=C1c2ccc([N+](=O)[O-])cc2C(=O)N1CCC1CCN(Cc2ccc(Cl)cc2)CC1 | 240 nM
4 | CC(=O)N(C)CCC1CCN(Cc2ccccc2)CC1 | 660 nM
5 | O=C(c1ccc([N+](=O)[O-])cc1)N(CCC1CCN(Cc2ccccc2)CC1)c1ccccc1 | 5.4 nM
6 | COc1cccc(N(CCC2CCN(Cc3ccccc3)CC2)C(C)=O)c1 | 46 nM
7 | O=C(Nc1ccc2c(c1)C(=O)N(CCC1CCN(Cc3ccccc3)CC1)C2=O)c1ccccc1 | 1.2 nM
8 | Nc1cccc2c1C(=O)N(CCC1CCN(Cc3ccccc3)CC1)C2=O | 11 nM
9 | O=c1c2ccccc2ncn1CCC1CCN(Cc2ccccc2)CC1 | 1200 nM
10 | O=C(C1CCCCC1)N(CCC1CCN(Cc2ccccc2)CC1)c1ccccc1 | 9400 nM
11 | CN1CCC(CCN2C(=O)c3ccc([N+](=O)[O-])cc3C2=O)CC1 | 6800 nM
12 | O=C1Cc2ccccc2C(=O)N1CCC1CCN(Cc2ccccc2)CC1 | 23 nM
13 | CC(=O)N(CCC1CCN(Cc2ccccc2)CC1)c1cccc(F)c1 | 65 nM
14 | O=c1c2ccccc2ccn1CCC1CCN(Cc2ccccc2)CC1 | 1100 nM
15 | CC(=O)N(CCC1CCN(Cc2ccccc2)CC1)c1ccncc1 | 108 nM
16 | O=C1CCCCN1CCC1CCN(Cc2ccccc2)CC1 | 270 nM
17 | O=C(Nc1cccc2c1C(=O)N(CCC1CCN(Cc3ccccc3)CC1)C2=O)c1ccccc1 | 340 nM
18 | COc1ccc(N(CCC2CCN(Cc3ccccc3)CC2)C(C)=O)cc1 | 700 nM
19 | CCC(=O)N(CCC1CCN(Cc2ccccc2)CC1)c1ccccc1 | 830 nM
20 | COc1ccc(C(=O)N(CCC2CCN(Cc3ccccc3)CC2)c2ccccc2)cc1 | 590 nM
21 | c1ccc(CN2CCC(CCN3CCc4ccccc4C3)CC2)cc1 | 1600 nM
22 | O=C1c2ccc([N+](=O)[O-])cc2C(=O)N1CC1CCN(Cc2ccccc2)CC1 | 3000 nM
23 | O=C1c2ccccc2CN1CCC1CCN(Cc2ccccc2)CC1 | 98 nM
24 | COc1ccc(CN2CCC(CCN3C(=O)c4ccc([N+](=O)[O-])cc4C3=O)CC2)cc1 | 440 nM
25 | CC(=O)N(CCC1CCN(Cc2ccccc2)CC1)c1ccc(F)cc1 | 205 nM
26 | O=C1c2ccc([N+](=O)[O-])cc2C(=O)N1C1CCN(Cc2ccccc2)CC1 | 27000 nM
27 | CN(CCC1CCN(Cc2ccccc2)CC1)C(=O)c1ccc(S(=O)(=O)Cc2ccccc2)cc1 | 0.56 nM
28 | CNC(=O)Oc1ccc2c(c1)[C@]1(C)CCN(C)[C@@H]1N2C [PHYSOSTIGMINE] | 0.69 nM

Molecular target: T2, Butyrylcholinesterase (Rattus norvegicus, UniProt Q9JKC1)
Test: In vitro inhibitory concentration against butyrylcholinesterase (BuChE) obtained from rat plasma
Type: cell-free

T2 sequence (Q9JKC1 whole entry): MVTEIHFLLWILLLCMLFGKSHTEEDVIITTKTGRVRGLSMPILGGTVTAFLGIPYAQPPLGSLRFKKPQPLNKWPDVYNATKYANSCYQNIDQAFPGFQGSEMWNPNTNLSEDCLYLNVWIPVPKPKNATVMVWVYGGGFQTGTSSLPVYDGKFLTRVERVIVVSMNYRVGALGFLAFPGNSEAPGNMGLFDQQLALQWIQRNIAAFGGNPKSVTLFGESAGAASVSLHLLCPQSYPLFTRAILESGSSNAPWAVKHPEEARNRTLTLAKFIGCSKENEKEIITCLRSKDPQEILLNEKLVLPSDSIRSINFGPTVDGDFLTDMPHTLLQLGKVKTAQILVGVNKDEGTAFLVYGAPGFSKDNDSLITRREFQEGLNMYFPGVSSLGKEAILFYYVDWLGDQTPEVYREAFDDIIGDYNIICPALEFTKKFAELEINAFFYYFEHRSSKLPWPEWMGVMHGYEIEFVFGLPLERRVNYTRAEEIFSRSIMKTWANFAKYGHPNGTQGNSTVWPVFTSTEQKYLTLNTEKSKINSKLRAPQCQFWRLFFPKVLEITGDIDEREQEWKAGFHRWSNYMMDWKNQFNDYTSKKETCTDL

Row | Structure (SMILES) | IC50
29 | CNC(=O)Oc1ccc2c(c1)[C@]1(C)CCN(C)[C@@H]1N2C [PHYSOSTIGMINE] | 8.1 nM

Molecular target: T2, Butyrylcholinesterase
Test: not given

Row | Structure (SMILES) | IC50
30 | O=C(Nc1ccc2c(c1)C(=O)N(CCC1CCN(Cc3ccccc3)CC1)C2=O)c1ccccc1 | 42300 nM
